In article PMC11423305, “Structure-Based Design of CBP/EP300 Degraders: When Cooperativity Overcomes Affinity” (JACS Au, 2024):

Target: T1, BRD4 (Homo sapiens, UniProt O60885)
T1 construct: Western blot masurement of BRD4 levels in LP1 cells treated for 16 h with; endogenous in cells; host or cells: LP1 and MM1S cells
Assay: Global proteomics / Western blot of BRD4 level
Type: cell-based
Conditions: LP1 and MM1S cells, 16 h, 1 μM; verified by Western blot
Protocol: cooperativity factor (α) was defined as the ratio of the IC50 values in the absence and […]
For the ternary complex experiments, the final assay composition was: 0.1 % DMSO, 5 nM GST-CBP, 5 nM CRBN-Avi(biotin), 100 mM KF, 0.625 nM XL665-Streptavidin conjugate and 0.8 nM anti-GST mAb – Eu3+-cryptate. The maximal control contained 40 nM dCBP-1, the blank contained no PROTAC. Hook curves were generated by normalization to the maximal control.
LP1 cells were cultured in DMEM (Gibco, 41966-029) supplemented with 15 % FBS (Sigma, F9665); MM1S and LNCaP cells in RPMI 1640 ATCC modification (Gibco, […]
DMEM/F12 (Gibco, 11320074) supplemented with 1 % non-essential amino acids […]
Quantification of CBP/EP300 degradation by Western blotting
LP1 cells plated on 6 well plates were treated with the stated compounds at a final concentration of 0.1 % DMSO for the stated time. […] Protein concentrations were determined using the Pierce ™ BCA Protein Assay Kit (Thermo Scientific, 23227) and equal amounts were separated on 4-12 % ExpressPl us™ PAGE gels (GenScript, M41215). […]
SuperSignal™ West Pico PLUS Chemiluminescent Substrate (Thermo Scientific, 34580) and the Vilber Fusion-FX7 imager. Bands were quantified using ImageJ software and protein levels normalized to protein from DMSO treated cells run on the same membrane. […]

- level of BRD4: not changed
Structure (SMILES): Cc1cc2c(NC(=O)c3cc(NC(=O)CCCCCCCCCCNc4cccc5c4C(=O)N(C4CCC(=O)NC4=O)C5=O)cc(-c4ccn(C)n4)c3)cccc2nn1 (stereo not shown) [dCE-2]
